According to patent US10266549B2, “ULK1 inhibitors and methods using same” (SALK INSTITUTE FOR BIOLOGICAL STUDIES, priority 2014, dated 2019):

Experiments:
ULK1 = ULK1 (Homo sapiens (Human), UniProt O75385); experiment: ULK1 inhibition assay (Table 1); format: biochemical; details: * = tested as a mixture of regioisomers
WT ULK2 = WT ULK2 (Homo sapiens (Human), UniProt Q8IYT8); experiment: in vitro kinase assay, WT ULK2, MBP substrate, radiolabeled ATP; format: biochemical; details: 10-μM MBP, 30-μM γ-32P-ATP; triplicate, ten-dose, 3-fold serial dilution from 1 μM
WT ULK2, sequence (Q8IYT8 whole entry): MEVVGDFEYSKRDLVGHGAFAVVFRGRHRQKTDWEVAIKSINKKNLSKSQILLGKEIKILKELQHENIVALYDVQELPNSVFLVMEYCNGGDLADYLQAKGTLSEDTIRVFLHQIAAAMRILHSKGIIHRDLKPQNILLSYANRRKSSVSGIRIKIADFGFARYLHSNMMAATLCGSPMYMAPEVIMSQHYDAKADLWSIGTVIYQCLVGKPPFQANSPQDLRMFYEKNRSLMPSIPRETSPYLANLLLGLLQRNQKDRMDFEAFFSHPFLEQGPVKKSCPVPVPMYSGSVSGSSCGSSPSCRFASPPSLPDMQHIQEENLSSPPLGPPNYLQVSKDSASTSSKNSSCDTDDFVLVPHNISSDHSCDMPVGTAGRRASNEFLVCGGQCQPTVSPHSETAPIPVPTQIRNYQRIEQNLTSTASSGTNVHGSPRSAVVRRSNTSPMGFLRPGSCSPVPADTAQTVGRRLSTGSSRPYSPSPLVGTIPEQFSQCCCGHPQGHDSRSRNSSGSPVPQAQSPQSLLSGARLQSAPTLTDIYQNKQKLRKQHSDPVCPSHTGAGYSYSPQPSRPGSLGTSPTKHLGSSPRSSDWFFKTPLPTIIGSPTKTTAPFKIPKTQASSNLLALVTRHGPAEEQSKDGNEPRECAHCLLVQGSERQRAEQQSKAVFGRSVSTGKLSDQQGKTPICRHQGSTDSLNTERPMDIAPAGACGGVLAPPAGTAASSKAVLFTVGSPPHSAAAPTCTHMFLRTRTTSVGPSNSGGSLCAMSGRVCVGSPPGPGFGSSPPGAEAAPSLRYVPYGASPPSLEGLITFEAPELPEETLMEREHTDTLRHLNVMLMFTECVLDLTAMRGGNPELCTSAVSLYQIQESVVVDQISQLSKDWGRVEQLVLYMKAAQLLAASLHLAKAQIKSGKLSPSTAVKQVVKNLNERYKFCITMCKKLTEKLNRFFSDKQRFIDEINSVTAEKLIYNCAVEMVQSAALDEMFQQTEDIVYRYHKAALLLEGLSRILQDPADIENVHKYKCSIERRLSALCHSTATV
Procedure: WT ULK1 (left) and WT ULK2 (right) were assayed using 10-μM MBP in the presence of 30-μM radiolabeled γ-^32P-ATP.
To further examine how ULK1 regulates autophagy, we sought to identify small molecule ATP competitive kinase inhibitors of ULK1. Screening a library of chemical compounds for inhibitors of ULK1 kinase activity in vitro, we identified a lead compound that was further elaborated through a medicinal chemistry effort to produce compound 14. […] To further characterize the ability of compound 14 and related derivatives to inhibit ULK1 in cells, we tested the ability of these compounds to inhibit the phosphorylation of Vps34 Ser249 when epitope-tagged Vps34 was co-expressed in HEK293T cells with a wild-type ULK1 cDNA. Screening 40 compounds, we found compound 14 inhibited P-Vps34 on overexpressed Vps34 when used at ˜5 μM (FIG. 7B). We next examined the sensitivity of phosphorylation of Vps34 Serine 249 versus Beclin Serine 15 to two structurally distinct ULK1 inhibitors, when cDNAs bearing each were introduced into HEK293T cells. […] (FIG. 11A).

ULK1, sequence (O75385 whole entry, species assumed): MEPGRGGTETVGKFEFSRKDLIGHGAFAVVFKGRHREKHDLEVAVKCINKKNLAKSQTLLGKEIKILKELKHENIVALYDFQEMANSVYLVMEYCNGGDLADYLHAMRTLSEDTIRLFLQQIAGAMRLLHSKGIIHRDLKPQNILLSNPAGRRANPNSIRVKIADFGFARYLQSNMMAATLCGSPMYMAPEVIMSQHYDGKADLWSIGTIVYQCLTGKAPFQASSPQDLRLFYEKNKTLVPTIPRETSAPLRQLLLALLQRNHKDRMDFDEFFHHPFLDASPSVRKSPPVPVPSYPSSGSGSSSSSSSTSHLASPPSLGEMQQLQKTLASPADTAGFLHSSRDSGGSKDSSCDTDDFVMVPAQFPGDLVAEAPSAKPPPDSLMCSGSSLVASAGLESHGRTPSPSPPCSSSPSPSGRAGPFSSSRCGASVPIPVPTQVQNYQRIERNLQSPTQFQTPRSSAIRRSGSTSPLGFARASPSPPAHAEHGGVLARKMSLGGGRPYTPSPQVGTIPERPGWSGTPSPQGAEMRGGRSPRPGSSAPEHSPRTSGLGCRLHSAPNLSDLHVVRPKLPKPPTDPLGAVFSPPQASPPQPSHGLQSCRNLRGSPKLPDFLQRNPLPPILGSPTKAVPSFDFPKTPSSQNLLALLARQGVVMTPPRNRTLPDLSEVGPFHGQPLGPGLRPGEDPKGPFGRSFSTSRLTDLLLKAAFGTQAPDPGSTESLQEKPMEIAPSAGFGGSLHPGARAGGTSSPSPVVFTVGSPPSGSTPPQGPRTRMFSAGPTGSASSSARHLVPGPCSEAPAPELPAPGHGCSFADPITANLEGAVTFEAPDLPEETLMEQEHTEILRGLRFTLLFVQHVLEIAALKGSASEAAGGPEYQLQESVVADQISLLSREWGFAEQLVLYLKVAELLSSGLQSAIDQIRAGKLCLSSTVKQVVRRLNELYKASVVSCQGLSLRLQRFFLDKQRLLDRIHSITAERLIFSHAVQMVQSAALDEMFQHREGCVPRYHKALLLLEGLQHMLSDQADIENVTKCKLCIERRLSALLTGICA

**Q.** With `CNC(=O)c1ccccc1Nc1nc(Nc2cc(OC)c(OC)c(OC)c2)ncc1Br` [compound 14, 2-(5-bromo-2-(3,4,5-trimethoxyphenylamino)pyrimidin-4-ylamino)-N-methylbenzamide] as the compound, how does the IC50 (ULK1) read?
**A.** Its IC50 is < 200 nM.

**Q.** What about the IC50 (WT ULK2) of the same compound?
**A.** Its IC50 is 0.711 µM.
